Assay results: ChEMBL document CHEMBL1201862, “PubChem BioAssay data set” (2004)
Activity calls are given as the source filed them.

Legend:
[1] = target: Induced myeloid leukemia cell differentiation protein Mcl-1 (Homo sapiens, UniProt Q07820); assay type: functional
Bcl-2-like protein 10 = Bcl-2-like protein 10 (Homo sapiens, UniProt Q9HD36); assay: Bcl-B/TR3 peptide binding disruption – biochemical, fluorescence polarization, FITC-TR3 peptide, selectivity assay for Bfl-1 inhibitor project, primary screen (AID 748);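 also: fluorescence polarization from a fluorescein-labelled TR3 peptide binding purified Bcl-B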
[2] = IC50 of Artemis nuclease activity blockers – biochemical, fluorescence intensity, dose response (AID 720701); assay type: functional;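 also: Artemis endonuclease enzyme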
[3] = target: E3 ubiquitin-protein ligase XIAP (Homo sapiens, UniProt P98170); assay: Counter Screen using XIAP-Bir3 for Chemical Antagonists of Bir1/2 domains of IAP-family anti-apoptotic proteins. [Related pubchem assays (depositor defined):AID1018, AID1449, AID1514, AID1638, AID1749, AID1750, AID488957, AID488963]
[4] = target: T1, Long-chain-fatty-acid--AMP ligase FadD28 (Mycobacterium tuberculosis, UniProt P9WQ59); assay: Fluorescence polarization aasay to screen for inhibitors that compete for the binding of FadD28 to a bisubstrate Measured in Biochemical System Using Plate Reader - 2147-01_Inhibitor_Dose_CherryPick_Activity.; assay type: functional, Mycobacterium tuberculosis H37Rv
T1 sequence (P9WQ59 whole entry): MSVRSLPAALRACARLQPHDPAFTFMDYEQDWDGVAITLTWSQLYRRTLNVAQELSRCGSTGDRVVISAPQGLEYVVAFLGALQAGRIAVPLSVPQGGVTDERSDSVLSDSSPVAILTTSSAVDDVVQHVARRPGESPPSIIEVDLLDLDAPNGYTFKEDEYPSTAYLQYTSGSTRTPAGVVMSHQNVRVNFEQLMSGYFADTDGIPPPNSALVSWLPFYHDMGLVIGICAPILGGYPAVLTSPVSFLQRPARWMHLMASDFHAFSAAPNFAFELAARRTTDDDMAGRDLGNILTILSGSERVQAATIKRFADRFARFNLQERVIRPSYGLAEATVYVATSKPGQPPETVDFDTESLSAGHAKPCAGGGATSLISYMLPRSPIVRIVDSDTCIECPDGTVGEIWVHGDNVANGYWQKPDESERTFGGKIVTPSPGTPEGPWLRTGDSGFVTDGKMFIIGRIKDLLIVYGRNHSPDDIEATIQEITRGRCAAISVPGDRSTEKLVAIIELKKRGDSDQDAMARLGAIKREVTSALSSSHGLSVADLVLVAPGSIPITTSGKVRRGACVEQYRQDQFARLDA

Genome polyprotein = Genome polyprotein (dengue virus type 2, UniProt P29990); assay: flavivirus cap methylation enzyme inhibition – biochemical, confirmation dose response, primary screen (AID 588689); assay type: functional
Aminopeptidase N = target: T2, Aminopeptidase N (Plasmodium falciparum FcB1/Columbia, UniProt O96935); assay: malaria alanyl aminopeptidase activity blockers – biochemical, fluorogenic H-Leu-NHMec substrate, 1536-well (AID 1445); design: species or system Plasmodium falciparum 3D7, 3D7
T2 sequence (O96935 whole entry): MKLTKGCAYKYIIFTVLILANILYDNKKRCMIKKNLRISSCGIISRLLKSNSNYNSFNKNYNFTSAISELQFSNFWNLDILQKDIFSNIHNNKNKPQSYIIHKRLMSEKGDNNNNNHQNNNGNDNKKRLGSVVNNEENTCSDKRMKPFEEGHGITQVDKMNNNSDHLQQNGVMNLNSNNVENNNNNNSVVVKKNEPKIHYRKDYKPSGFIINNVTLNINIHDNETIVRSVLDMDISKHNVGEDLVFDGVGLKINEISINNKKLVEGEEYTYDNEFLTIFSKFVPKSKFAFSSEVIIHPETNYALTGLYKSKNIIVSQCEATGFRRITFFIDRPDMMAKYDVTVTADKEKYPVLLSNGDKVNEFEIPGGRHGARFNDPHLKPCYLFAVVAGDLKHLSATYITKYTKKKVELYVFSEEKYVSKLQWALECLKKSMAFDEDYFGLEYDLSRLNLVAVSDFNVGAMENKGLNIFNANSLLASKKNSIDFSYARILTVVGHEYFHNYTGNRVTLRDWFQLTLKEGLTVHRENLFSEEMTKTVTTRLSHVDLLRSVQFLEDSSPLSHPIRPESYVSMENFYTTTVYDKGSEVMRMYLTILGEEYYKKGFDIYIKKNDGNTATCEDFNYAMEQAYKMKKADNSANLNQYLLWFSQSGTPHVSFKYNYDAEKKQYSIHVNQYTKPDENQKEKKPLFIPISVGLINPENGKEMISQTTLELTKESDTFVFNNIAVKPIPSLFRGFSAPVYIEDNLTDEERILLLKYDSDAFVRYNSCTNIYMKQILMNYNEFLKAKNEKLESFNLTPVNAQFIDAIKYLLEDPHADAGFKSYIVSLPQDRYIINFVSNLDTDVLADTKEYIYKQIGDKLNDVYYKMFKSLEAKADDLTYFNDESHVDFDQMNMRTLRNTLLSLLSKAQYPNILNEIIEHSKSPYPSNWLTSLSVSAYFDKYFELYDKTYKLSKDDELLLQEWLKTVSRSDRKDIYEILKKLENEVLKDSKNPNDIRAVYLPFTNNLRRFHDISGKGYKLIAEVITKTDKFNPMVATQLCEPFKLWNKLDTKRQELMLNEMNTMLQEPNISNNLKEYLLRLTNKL

Caspase-6 = Caspase-6 (Homo sapiens, UniProt P55212); assay: inhibition of CASP6 peptide cleavage – biochemical, VEID-R110 fluorescence, cherry-pick, dose response (AID 720632)
[5] = target: Bifunctional protein GlmU (Mycobacterium tuberculosis, UniProt P9WMN3); assay: Inhibitors of Mycobacterial Glucosamine-1-phosphate acetyl transferase (GlmU). Secondary screen.; design: species or system Mycobacterium tuberculosis H37Rv
[6] = target: RNA-editing ligase 1, mitochondrial (Trypanosoma brucei brucei, UniProt P86926); assay: inhibition of trypanosome RNA editing ligase – biochemical, fluorescence, Trypanosoma brucei, dose response (AID 1117295); assay type: functional
[7] = target: T3, Probable nicotinate-nucleotide adenylyltransferase (Staphylococcus aureus (strain N315), UniProt P65502); assay type: functional, Staphylococcus aureus subsp. aureus N315; conditions: read-out: IC50_Mean;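 as to IC50 Mean: confirmatory dose-response retesting of NadD inhibitor hits first found in an ultra-high-throughput screen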
[8] = target: T3, Probable nicotinate-nucleotide adenylyltransferase; assay type: functional, Staphylococcus aureus subsp. aureus N315
INS1 = assay: INS-1E survival protection against cytokine death – cell-based, luminescence, retest, dose response (AID 449756); assay type: functional; conditions: Rattus norvegicus;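 also: cell death triggered by IL-1 beta plus TNF-alpha plus IFN-gamma mixture; protective hits raise ATP signal compared with cytokine alone wells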
[9] = Trypanosoma cruzi growth suppression in host cells – NIH3T3 host cells, beta-gal luminescence, confirmation (AID 2044); assay type: functional, cell-based;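 also: intracellular parasites grown in NIH/3T3 mouse fibroblasts as host cells; luminescent beta-galactosidase reporter signal from transgenic T. cruzi replicating inside host cells; inhibitors lower the luminescence signal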
[10] = OV-90 cell viability loss – plate reader, dry powder, SA8, PAX8 inhibitor project, dose response (AID 743149); assay type: functional, cell-based
[11] = OVCAR-3 cell viability loss – plate reader, dry powder samples, PAX8 inhibitor project, dose response (AID 743044); assay type: functional, cell-based
[12] = tested on: Streptococcus sp. 'group A'; assay: Streptococcus pyogenes SK(-)GAS viability under kanamycin – luminescence, BacTiterGlo, confirmation, counter-screen for streptokinase expression inhibitor project, dose response (AID 1900); assay type: functional, organism-based
[13] = PAX8-dependent cell viability loss – plate reader, dry powder, dose response (AID 743049); assay type: functional, cell-based
[14] = IGROV1 cell killing – plate reader, dry powder samples, PAX8 inhibitor project, dose response (AID 743043); assay type: functional, cell-based; conditions: IGROV-1
[15] = non-specific 3'UTR reporter inhibition in Clone20-Shn3RL – cell-based, Renilla luciferase, cherry-picked, counter-screen for Shn3 inhibitor project, dose response (AID 624133); assay type: functional
[16] = COV362 cell viability loss – plate reader, dry powder, SA12, cytotoxicity control for PAX8 inhibitor project, dose response (AID 743144); assay type: functional, cell-based
[17] = inhibitors acting on PAX2 in cells – cell-based, plate reader, dry powder samples, selectivity assay for PAX8 inhibitor project, dose response (AID 743048); assay type: functional;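 also: HEK293 cells carrying a WT1 promoter luciferase reporter driven by expressed Pax2; potency is for inhibition of Pax2 driven reporter signal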
Paired box protein Pax-8 = Paired box protein Pax-8 (Homo sapiens, UniProt Q06710); assay: PAX8 transcriptional activity inhibition in RMG-I – RMG-I cells, luciferase, cherry-pick, dose response (AID 687027); assay type: functional, cell-based;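 also: luciferase reporter driven by Pax8 target thyroperoxidase promoter measured by SteadyGlo luminescence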
[18] = NIH3T3 cell viability loss – ATP luminescence, mouse fibroblasts, counter-screen, dose response (AID 2010); assay type: functional, cell-based;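 also: cells exposed to compound for about 90 hours before reading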
[19] = target: T4, Type-1 angiotensin II receptor (Homo sapiens, UniProt P30556); assay: agonist activity at AGTR1 – cell-based, uHTS hits, selectivity assay for APJ receptor agonist project, dose response (AID 488865); assay type: functional;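 also: beta-arrestin recruitment to AT1 measured by enzyme fragment complementation luminescence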
T4 sequence (P30556 whole entry): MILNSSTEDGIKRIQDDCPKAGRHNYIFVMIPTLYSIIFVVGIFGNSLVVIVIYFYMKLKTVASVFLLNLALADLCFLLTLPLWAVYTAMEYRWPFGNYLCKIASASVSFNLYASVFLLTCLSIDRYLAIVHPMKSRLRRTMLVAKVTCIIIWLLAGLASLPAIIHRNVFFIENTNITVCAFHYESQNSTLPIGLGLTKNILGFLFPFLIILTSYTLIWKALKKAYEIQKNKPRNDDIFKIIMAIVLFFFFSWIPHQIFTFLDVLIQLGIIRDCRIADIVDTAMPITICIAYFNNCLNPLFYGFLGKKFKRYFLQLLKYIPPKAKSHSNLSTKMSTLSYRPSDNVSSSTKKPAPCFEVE

[20] = reduction of Shn3 3'UTR-driven luciferase in osteoblasts – cell-based, Clone20 osteoblasts, firefly luciferase, cherry-picked, dose response (AID 624132); assay type: functional;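 also: firefly luciferase luminescence from reporter carrying the Shn3 3'UTR in osteoblasts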
[21] = A2780 cell killing – plate reader, dry powder samples, cytotoxicity control, dose response (AID 743046); assay type: functional, cell-based
[22] = COV434 cell viability loss – plate reader, dry powder, SA7, cytotoxicity control for PAX8 inhibitor project, dose response (AID 743145); assay type: functional, cell-based
Streptococcus = assay: GAS UMAA2166 growth inhibition – luminescence, BacTiterGlo, counter-screen for streptokinase expression inhibitor project, dose response (AID 1915); assay type: functional, organism-based;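 also: potency for reduction of bacterial viability or growth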
[23] = OVCAR4 cell viability loss – plate reader, dry powder, SA11, cytotoxicity control for PAX8 inhibitor project, dose response (AID 743150); assay type: functional, cell-based; conditions: OVCAR-4
cells [24] = assay type: functional, cell-based
[25] = loss of viability in HepG2 cells – cell-based, CellTiter-Glo, cherry-picked, cytotoxicity control for Shn3 inhibitor project, dose response (AID 624134); assay type: functional
[26] = PAX5 cellular inhibition readout – cell-based, plate reader, dry powder samples, selectivity assay for PAX8 inhibitor project, dose response (AID 743047); assay type: functional;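 also: HEK293 cells carrying a Pax5 driven CD19 promoter luciferase reporter; potency of inhibitors that lower reporter luminescence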
cells [27] = assay type: functional, cell-based; remark: listed apart in the source

Induced myeloid leukemia cell differentiation protein Mcl-1, sequence (Q07820 whole entry): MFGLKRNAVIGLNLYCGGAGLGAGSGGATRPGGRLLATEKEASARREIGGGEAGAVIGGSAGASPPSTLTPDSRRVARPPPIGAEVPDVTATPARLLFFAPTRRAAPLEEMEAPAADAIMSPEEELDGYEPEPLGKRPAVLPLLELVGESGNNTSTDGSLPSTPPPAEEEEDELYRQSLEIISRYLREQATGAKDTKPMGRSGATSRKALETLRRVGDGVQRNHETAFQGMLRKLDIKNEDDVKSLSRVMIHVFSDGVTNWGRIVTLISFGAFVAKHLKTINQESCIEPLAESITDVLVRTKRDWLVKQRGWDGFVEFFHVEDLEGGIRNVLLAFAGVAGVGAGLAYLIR
T3 sequence (P65502 whole entry): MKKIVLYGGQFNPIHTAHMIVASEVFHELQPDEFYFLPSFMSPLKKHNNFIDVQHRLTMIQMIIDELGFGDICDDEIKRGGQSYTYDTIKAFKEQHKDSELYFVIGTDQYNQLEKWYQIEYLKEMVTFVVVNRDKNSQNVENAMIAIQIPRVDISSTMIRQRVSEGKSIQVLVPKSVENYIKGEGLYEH
Genome polyprotein, sequence (P29990 2492-3391 limits assumed): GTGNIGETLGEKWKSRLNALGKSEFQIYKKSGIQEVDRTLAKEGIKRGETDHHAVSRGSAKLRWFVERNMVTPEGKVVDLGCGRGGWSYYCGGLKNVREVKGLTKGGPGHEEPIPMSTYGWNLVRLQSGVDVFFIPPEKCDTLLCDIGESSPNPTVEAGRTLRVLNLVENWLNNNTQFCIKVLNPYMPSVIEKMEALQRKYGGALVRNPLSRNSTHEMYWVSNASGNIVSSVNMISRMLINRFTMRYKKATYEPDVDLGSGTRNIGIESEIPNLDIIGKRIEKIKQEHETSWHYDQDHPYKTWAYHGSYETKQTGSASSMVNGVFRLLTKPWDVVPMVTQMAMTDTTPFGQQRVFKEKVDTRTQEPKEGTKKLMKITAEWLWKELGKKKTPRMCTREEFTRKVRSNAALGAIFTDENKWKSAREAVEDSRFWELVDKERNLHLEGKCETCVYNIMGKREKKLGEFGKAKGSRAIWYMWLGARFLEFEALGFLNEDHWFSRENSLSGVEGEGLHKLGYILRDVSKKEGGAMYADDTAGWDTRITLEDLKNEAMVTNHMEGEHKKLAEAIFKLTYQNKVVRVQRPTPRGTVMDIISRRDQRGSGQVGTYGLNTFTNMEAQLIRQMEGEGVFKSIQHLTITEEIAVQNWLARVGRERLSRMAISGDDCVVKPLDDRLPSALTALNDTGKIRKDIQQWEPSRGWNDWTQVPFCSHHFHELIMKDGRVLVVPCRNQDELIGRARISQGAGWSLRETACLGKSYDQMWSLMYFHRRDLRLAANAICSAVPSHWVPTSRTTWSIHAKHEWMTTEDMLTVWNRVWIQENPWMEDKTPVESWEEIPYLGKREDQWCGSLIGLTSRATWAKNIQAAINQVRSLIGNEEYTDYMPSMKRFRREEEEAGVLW
Caspase-6, sequence (P55212 24-179 limits assumed): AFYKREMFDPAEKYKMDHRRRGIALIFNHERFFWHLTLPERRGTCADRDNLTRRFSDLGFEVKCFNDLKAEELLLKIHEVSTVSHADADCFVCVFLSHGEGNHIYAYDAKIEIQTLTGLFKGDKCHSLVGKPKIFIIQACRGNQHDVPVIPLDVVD
Caspase-6, sequence (P55212 194-293 limits assumed): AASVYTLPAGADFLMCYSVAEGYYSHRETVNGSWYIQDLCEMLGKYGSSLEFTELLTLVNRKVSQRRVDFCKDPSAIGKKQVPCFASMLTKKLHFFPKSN
Bifunctional protein GlmU, sequence (P9WMN3 whole entry): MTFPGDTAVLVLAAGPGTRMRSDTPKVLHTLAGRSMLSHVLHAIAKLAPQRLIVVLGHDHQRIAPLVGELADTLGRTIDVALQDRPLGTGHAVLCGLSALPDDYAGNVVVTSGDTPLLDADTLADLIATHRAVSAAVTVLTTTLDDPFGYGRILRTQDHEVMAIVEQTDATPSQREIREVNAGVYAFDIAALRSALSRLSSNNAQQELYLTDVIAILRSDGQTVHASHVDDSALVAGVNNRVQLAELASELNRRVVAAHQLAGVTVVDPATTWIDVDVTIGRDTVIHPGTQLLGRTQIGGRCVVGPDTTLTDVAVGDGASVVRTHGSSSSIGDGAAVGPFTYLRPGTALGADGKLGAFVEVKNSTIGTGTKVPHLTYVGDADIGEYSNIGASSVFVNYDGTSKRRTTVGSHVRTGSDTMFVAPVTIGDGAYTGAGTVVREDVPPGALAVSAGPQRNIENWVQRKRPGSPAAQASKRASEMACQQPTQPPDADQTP
Paired box protein Pax-8, sequence (Q06710 whole entry): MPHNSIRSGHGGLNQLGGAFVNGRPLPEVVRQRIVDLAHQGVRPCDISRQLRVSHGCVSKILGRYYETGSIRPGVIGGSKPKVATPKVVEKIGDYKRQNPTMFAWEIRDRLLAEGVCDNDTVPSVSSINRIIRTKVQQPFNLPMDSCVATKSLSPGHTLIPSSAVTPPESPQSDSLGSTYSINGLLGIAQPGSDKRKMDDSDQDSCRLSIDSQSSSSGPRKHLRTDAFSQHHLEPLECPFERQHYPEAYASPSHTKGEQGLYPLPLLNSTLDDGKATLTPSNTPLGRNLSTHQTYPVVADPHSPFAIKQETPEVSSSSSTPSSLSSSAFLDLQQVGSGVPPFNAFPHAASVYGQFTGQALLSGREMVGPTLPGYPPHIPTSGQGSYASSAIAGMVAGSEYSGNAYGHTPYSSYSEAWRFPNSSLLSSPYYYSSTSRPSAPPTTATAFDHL
Bcl-2-like protein 10, sequence (Q9HD36 whole entry): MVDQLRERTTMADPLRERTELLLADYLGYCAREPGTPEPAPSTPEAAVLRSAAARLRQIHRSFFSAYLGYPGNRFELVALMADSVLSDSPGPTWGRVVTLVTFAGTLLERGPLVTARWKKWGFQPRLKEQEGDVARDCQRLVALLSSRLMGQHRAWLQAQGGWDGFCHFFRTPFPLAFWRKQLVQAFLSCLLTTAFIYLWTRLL
RNA-editing ligase 1, mitochondrial, sequence (P86926 whole entry): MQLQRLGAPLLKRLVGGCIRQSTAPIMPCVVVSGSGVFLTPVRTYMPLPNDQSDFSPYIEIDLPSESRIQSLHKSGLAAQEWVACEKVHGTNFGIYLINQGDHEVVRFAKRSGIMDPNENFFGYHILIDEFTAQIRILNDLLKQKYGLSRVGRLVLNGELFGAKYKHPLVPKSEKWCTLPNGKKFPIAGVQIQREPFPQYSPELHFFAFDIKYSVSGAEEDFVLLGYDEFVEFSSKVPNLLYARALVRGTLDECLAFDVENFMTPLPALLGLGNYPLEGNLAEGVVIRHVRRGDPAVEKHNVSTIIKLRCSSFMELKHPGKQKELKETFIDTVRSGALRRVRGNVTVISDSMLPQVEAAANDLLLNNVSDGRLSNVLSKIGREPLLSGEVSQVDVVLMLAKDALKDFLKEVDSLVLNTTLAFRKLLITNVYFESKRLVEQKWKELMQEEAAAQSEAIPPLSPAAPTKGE
E3 ubiquitin-protein ligase XIAP, sequence (P98170 whole entry): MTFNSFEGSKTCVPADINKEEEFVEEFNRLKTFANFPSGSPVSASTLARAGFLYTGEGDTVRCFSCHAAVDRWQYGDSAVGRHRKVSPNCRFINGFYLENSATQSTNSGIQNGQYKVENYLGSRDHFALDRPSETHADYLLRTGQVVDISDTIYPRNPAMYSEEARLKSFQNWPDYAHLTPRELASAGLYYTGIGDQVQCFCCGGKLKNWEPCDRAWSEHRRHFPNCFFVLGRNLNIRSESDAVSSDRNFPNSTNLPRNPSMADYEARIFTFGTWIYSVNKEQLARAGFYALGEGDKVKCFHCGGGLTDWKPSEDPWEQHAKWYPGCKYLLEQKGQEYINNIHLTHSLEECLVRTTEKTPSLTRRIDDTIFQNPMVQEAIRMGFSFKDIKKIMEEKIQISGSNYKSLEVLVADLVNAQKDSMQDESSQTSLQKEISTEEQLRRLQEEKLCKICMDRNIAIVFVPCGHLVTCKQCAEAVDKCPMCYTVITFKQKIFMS

SMILES: COc1ccc(C(=O)Nc2ccc(N3CCCC3)cc2)cc1
- IC50 [1]: 3.44 µM (active)
- IC50 (Bcl-2-like protein 10): 41.9 µM (active)
- IC50 [2]: 16.2 µM (active)

SMILES: O=C(Nc1cccc(Oc2ccc(C(=O)O)c(C(=O)O)c2)c1)c1ccc(-c2ccccc2)cc1
- IC50 [3]: > 20 µM (inactive)
- AC50 [4]: 82.4 µM (active)
- IC50 [1]: 4.44 µM (active)
- IC50 (Genome polyprotein): 20.5 µM (active)
- IC50 (Aminopeptidase N): 44.7 µM (active)
- AC50 (Caspase-6): 15.7 µM (active)
- IC50 [5]: 147 µM (active)

SMILES: COC(=O)C1=C(C)N(Cc2ccccc2C(F)(F)F)C(NCc2ccc(C(F)(F)F)cc2)=NC1c1cccc(F)c1 (stereo not given)
- IC50 [6]: > 96.6 µM (inactive)

SMILES: Cc1cc(C)c2sc(NNC(=O)c3ccc(S(=O)(=O)N4CCc5ccccc5C4)cc3)nc2c1
- IC50 [7]: 42.2 µM (active)
- IC50 [8]: 7.44 µM (active)
- AC50 (INS1): 1.36 µM (active)
- EC50 [9]: 1.22 µM (active)
- AC50 [10]: 20.8 µM (active)
- AC50 [11]: 6.31 µM (active)
- EC50 [12]: 1.29 µM (active)
- AC50 [13]: 10.3 µM (active)
- AC50 [14]: 8.92 µM (active)
- AC50 [15]: 1.35 µM (active)
- AC50 [16]: 19.2 µM (active)
- AC50 [17]: 3.1 µM (active)
- AC50 (Paired box protein Pax-8): 2.27 µM (active)
- EC50 [18]: 1.82 µM (active)
- EC50 [19]: > 100 µM (inactive)
- AC50 [20]: 1.8 µM (active)
- AC50 [21]: 6.67 µM (active)
- AC50 [22]: 12.4 µM (active)
- EC50 (Streptococcus): 3.44 µM (active)
- AC50 [23]: 43.4 µM (active)
- EC50 (cells [24]): 41.8 µM (active)
- AC50 [25]: 33.1 µM (active)
- AC50 [26]: 4.85 µM (active)
- EC50 (cells [27]): > 350 µM (not active)
